The source of these data is patent US20250353891A1 (MEDIMMUNE LIMITED, priority 2022, published 2025).

Starred links: 1 amine or outer side, 2 acyl side, 3 side chain; linkers in the order of their positions; H or OH if unused. Non-standard residues stand in square brackets, D forms with d. Residues, ends and D or L forms follow the SMILES beside them. Groups on a side chain read outwards from the residue. *: point of attachment. Heptadecanoyl = CCCCCCCCCCCCCCCCC(=O)*; γGlu = O=C(O)[C@H](CCC(=O)[*:2])N[*:1]; Stearoyl = CCCCCCCCCCCCCCCCCC(=O)*; Palmitoyl = CCCCCCCCCCCCCCCC(=O)*; αMeF = C[C@](N)(Cc1ccccc1)C(=O)O; PEG2 = NCCOCCOCCC(=O)O; Aib = CC(C)(N)C(=O)O

Assay [1] concerns the target human glucagon receptor (hGCGR) (Homo sapiens, UniProt P47871). Description: cAMP production (HTRF) in CHO cells expressing hGCGR. Type of assay: cell-based. Also on record: expressed in transfected cells. To be noted: Table 6, peptides modified at position 17; cAMP in CHO hGCGR cells; geometric mean; read-out: hGluc-R EC50. A digest of the protocol:
(§1)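 Potency values represent EC50 from 4-parameter logistic curves of HTRF % Delta F signal. Receptor-expressing CHO cells (hGCGR 2×10^5 cells/mL, hGLP-1R 1×10^5 cells/mL) were exposed for 30 min at room temperature before two-step cAMP detection.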

Assay [2] addresses human GLP-1 receptor (hGLP-1R) (Homo sapiens, UniProt P43220). Kind of assay: cAMP production (HTRF) in CHO cells expressing hGLP-1R. Also on record: expressed in transfected cells. To be noted: for EC50: Table 6, peptides modified at position 17, cAMP in CHO hGLP-1R cells, geometric mean, read-out: hGLP-1R EC50; for % Relative Potency Ratio: Table 6, % GLP-1R activity relative to GLP-1 / % GlucR activity relative to glucagon. Type of assay: cell-based. A digest of the protocol:
as §1
(In general: Cyclic AMP is a second messenger, typically raised through Gs and lowered through Gi signalling.)

human GLP-1 receptor (hGLP-1R), sequence (P43220 24-463): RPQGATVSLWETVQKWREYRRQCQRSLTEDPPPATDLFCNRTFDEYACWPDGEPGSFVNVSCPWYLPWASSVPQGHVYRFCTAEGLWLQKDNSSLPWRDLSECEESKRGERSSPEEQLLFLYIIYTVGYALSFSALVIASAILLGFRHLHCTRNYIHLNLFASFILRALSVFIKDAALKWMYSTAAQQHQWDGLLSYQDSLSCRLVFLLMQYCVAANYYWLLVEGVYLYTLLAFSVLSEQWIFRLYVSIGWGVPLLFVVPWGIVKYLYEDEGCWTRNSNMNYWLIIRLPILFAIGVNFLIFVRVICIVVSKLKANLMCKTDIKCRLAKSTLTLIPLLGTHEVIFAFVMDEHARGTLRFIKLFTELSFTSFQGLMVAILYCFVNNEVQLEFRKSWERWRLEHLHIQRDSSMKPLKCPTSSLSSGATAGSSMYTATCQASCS
human glucagon receptor (hGCGR), sequence (P47871 26-477): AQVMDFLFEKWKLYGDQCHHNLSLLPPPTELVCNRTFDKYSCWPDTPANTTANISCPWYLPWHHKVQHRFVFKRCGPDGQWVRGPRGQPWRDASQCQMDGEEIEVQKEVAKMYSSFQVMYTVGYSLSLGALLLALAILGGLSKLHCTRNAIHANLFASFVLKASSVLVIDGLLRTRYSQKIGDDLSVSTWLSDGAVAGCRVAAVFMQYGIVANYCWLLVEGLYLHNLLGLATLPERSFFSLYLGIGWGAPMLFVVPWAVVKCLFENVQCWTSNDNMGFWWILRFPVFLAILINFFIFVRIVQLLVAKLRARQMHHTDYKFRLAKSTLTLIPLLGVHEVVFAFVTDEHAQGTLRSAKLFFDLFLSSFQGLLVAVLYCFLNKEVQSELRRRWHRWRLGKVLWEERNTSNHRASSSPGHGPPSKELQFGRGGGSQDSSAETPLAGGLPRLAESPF

In general, EC50 refers to the midpoint of the concentration-response curve. Consider `CCCCCCCCCCCCCCCC(=O)N[C@@H](CCC(=O)N[C@@H](CCC(=O)NCCOCCOCCC(=O)NCCOCCOCCC(=O)NCCCC[C@H](NC(=O)[C@H](CO)NC(=O)[C@H](CC(=O)O)NC(=O)[C@H](CC(C)C)NC(=O)[C@](C)(Cc1ccccc1)NC(=O)[C@H](CCCCN)NC(=O)[C@H](CO)NC(=O)[C@@H](NC(=O)[C@H](CC(=O)O)NC(=O)[C@H](CO)NC(=O)[C@@H](NC(=O)[C@](C)(Cc1ccccc1)NC(=O)[C@H](CO)NC(=O)CNC(=O)[C@H](CCC(N)=O)NC(=O)[C@H](CO)NC(=O)[C@@H](N)Cc1c[nH]cn1)[C@@H](C)O)C(C)C)C(=O)N[C@@H](C)C(=O)N[C@@H](C)C(=O)N[C@@H](CCC(N)=O)C(=O)N[C@@H](CC(=O)O)C(=O)N[C@@](C)(Cc1ccccc1)C(=O)N[C@H](C(=O)N[C@@H](CCC(N)=O)C(=O)NC(C)(C)C(=O)N[C@H](C(=O)N[C@@H](C)C(=O)N[C@@H](CC(N)=O)C(N)=O)[C@@H](C)CC)C(C)C)C(=O)O)C(=O)O` [Peptide 87] (H-HSQGS[αMeF]TSDVSK[αMeF]LDSK([PEG2-PEG2-γGlu-γGlu-Palmitoyl])AAQD[αMeF]VQ[Aib]IAN-NH2; N-terminus assumed), for which the EC50 was found to be 8.46 pM in assay [1] and 1.29 pM in assay [2]. In addition, in assay [2], the “% Relative Potency Ratio” value is on record as 13.0.

Turning to `CCCCCCCCCCCCCCCCC(=O)N[C@@H](CCC(=O)N[C@@H](CCC(=O)NCCOCCOCCC(=O)NCCOCCOCCC(=O)NCCCC[C@H](NC(=O)[C@H](CO)NC(=O)[C@H](CC(=O)O)NC(=O)[C@H](CC(C)C)NC(=O)[C@](C)(Cc1ccccc1)NC(=O)[C@H](CCCCN)NC(=O)[C@H](CO)NC(=O)[C@@H](NC(=O)[C@H](CC(=O)O)NC(=O)[C@H](CO)NC(=O)[C@@H](NC(=O)[C@](C)(Cc1ccccc1)NC(=O)[C@H](CO)NC(=O)CNC(=O)[C@H](CCC(N)=O)NC(=O)[C@H](CO)NC(=O)[C@@H](N)Cc1c[nH]cn1)[C@@H](C)O)C(C)C)C(=O)N[C@@H](C)C(=O)N[C@@H](C)C(=O)N[C@@H](CCC(N)=O)C(=O)N[C@@H](CC(=O)O)C(=O)N[C@@](C)(Cc1ccccc1)C(=O)N[C@H](C(=O)N[C@@H](CCC(N)=O)C(=O)NC(C)(C)C(=O)N[C@H](C(=O)N[C@@H](C)C(=O)N[C@@H](CC(N)=O)C(N)=O)[C@@H](C)CC)C(C)C)C(=O)O)C(=O)O` [Peptide 88] (H-HSQGS[αMeF]TSDVSK[αMeF]LDSK([PEG2-PEG2-γGlu-γGlu-Heptadecanoyl])AAQD[αMeF]VQ[Aib]IAN-NH2; N-terminus assumed), the values for the EC50 in assay [1] and in assay [2] were 6.47 pM and 1.04 pM, respectively. In assay [2], the “% Relative Potency Ratio” value amounted to 12.3.

For the compound `CCCCCCCCCCCCCCCC(=O)N[C@@H](CCC(=O)N[C@@H](CCC(=O)NCCOCCOCCC(=O)NCCOCCOCCC(=O)NCCCC[C@H](NC(=O)[C@H](CO)NC(=O)[C@H](CC(=O)O)NC(=O)[C@H](CC(C)C)NC(=O)[C@](C)(Cc1ccccc1)NC(=O)[C@H](CCCCN)NC(=O)[C@H](CO)NC(=O)[C@@H](NC(=O)[C@H](CC(=O)O)NC(=O)[C@H](CO)NC(=O)[C@@H](NC(=O)[C@](C)(Cc1ccccc1)NC(=O)[C@H](CO)NC(=O)CNC(=O)[C@H](CCC(N)=O)NC(=O)[C@H](CO)NC(=O)[C@@H](N)Cc1c[nH]cn1)[C@@H](C)O)C(C)C)C(=O)N[C@@H](C)C(=O)N[C@@H](C)C(=O)N[C@@H](CCC(N)=O)C(=O)N[C@@H](CC(=O)O)C(=O)N[C@@](C)(Cc1ccccc1)C(=O)N[C@H](C(=O)N[C@@H](CCC(=O)O)C(=O)NC(C)(C)C(=O)N[C@H](C(=O)N[C@@H](C)C(=O)N[C@@H](CC(N)=O)C(N)=O)[C@@H](C)CC)C(C)C)C(=O)O)C(=O)O` [Peptide 90] (H-HSQGS[αMeF]TSDVSK[αMeF]LDSK([PEG2-PEG2-γGlu-γGlu-Palmitoyl])AAQD[αMeF]VE[Aib]IAN-NH2; N-terminus assumed), the figures for the EC50 in assay [1] and in assay [2] were 6.61 pM and 1.87 pM, respectively. In assay [2], the “% Relative Potency Ratio” value is given as 7.0.

As to `CCCCCCCCCCCCCCCCCC(=O)N[C@@H](CCC(=O)N[C@@H](CCC(=O)NCCOCCOCCC(=O)NCCOCCOCCC(=O)NCCCC[C@H](NC(=O)[C@H](CO)NC(=O)[C@H](CC(=O)O)NC(=O)[C@H](CC(C)C)NC(=O)C(C)(C)NC(=O)[C@H](CCCCN)NC(=O)[C@H](CO)NC(=O)[C@@H](NC(=O)[C@H](CC(=O)O)NC(=O)[C@H](CO)NC(=O)[C@@H](NC(=O)[C@](C)(Cc1ccccc1)NC(=O)[C@H](CO)NC(=O)CNC(=O)[C@H](CCC(N)=O)NC(=O)[C@H](CO)NC(=O)[C@@H](N)Cc1c[nH]cn1)[C@@H](C)O)C(C)C)C(=O)N[C@@H](C)C(=O)N[C@@H](C)C(=O)N[C@@H](CCC(N)=O)C(=O)N[C@@H](CC(=O)O)C(=O)N[C@@](C)(Cc1ccccc1)C(=O)N[C@H](C(=O)N[C@@H](CCC(N)=O)C(=O)NC(C)(C)C(=O)N[C@@H](CC(C)C)C(=O)N[C@@H](CCC(=O)O)C(=O)N[C@@H](C)C(N)=O)C(C)C)C(=O)O)C(=O)O` [Peptide 92] (H-HSQGS[αMeF]TSDVSK[Aib]LDSK([PEG2-PEG2-γGlu-γGlu-Stearoyl])AAQD[αMeF]VQ[Aib]LEA-NH2; N-terminus assumed), the EC50 in assay [1] was determined as 10.9 pM. In addition, the “% Relative Potency Ratio” value in assay [2] is reported as 24.1.

Turning to `CCCCCCCCCCCCCCCCCC(=O)N[C@@H](CCC(=O)N[C@@H](CCC(=O)NCCOCCOCCC(=O)NCCOCCOCCC(=O)NCCCC[C@H](NC(=O)[C@H](CO)NC(=O)[C@H](CC(=O)O)NC(=O)[C@H](CC(C)C)NC(=O)C(C)(C)NC(=O)[C@H](CCCCN)NC(=O)[C@H](CO)NC(=O)[C@@H](NC(=O)[C@H](CC(=O)O)NC(=O)[C@H](CO)NC(=O)[C@@H](NC(=O)[C@](C)(Cc1ccccc1)NC(=O)[C@H](CO)NC(=O)CNC(=O)[C@H](CCC(N)=O)NC(=O)[C@H](CO)NC(=O)[C@@H](N)Cc1c[nH]cn1)[C@@H](C)O)C(C)C)C(=O)N[C@@H](C)C(=O)N[C@@H](C)C(=O)N[C@@H](CCC(N)=O)C(=O)N[C@@H](CC(=O)O)C(=O)N[C@@](C)(Cc1ccccc1)C(=O)N[C@H](C(=O)N[C@@H](CCC(N)=O)C(=O)NC(C)(C)C(=O)N[C@@H](CC(C)C)C(=O)N[C@@H](C)C(=O)N[C@@H](CC(N)=O)C(N)=O)C(C)C)C(=O)O)C(=O)O` [Peptide 93] (H-HSQGS[αMeF]TSDVSK[Aib]LDSK([PEG2-PEG2-γGlu-γGlu-Stearoyl])AAQD[αMeF]VQ[Aib]LAN-NH2; N-terminus assumed), the EC50 in assay [1] came to 8.92 pM. Further, in assay [2], the “% Relative Potency Ratio” value came out at 37.4.

Take `CCCCCCCCCCCCCCCCCC(=O)N[C@@H](CCC(=O)N[C@@H](CCC(=O)NCCOCCOCCC(=O)NCCOCCOCCC(=O)NCCCC[C@H](NC(=O)[C@H](CO)NC(=O)[C@H](CC(=O)O)NC(=O)[C@H](CC(C)C)NC(=O)C(C)(C)NC(=O)[C@H](CCCCN)NC(=O)[C@H](CO)NC(=O)[C@@H](NC(=O)[C@H](CC(=O)O)NC(=O)[C@H](CO)NC(=O)[C@@H](NC(=O)[C@](C)(Cc1ccccc1)NC(=O)[C@H](CO)NC(=O)CNC(=O)[C@H](CCC(N)=O)NC(=O)[C@H](CO)NC(=O)[C@@H](N)Cc1c[nH]cn1)[C@@H](C)O)C(C)C)C(=O)N[C@@H](C)C(=O)N[C@@H](C)C(=O)N[C@@H](CCC(N)=O)C(=O)N[C@@H](CC(=O)O)C(=O)N[C@@](C)(Cc1ccccc1)C(=O)N[C@H](C(=O)N[C@@H](CCC(N)=O)C(=O)NC(C)(C)C(=O)N[C@@H](CC(C)C)C(=O)N[C@@H](CO)C(=O)N[C@@H](CCC(=O)O)C(N)=O)C(C)C)C(=O)O)C(=O)O` [Peptide 94] (H-HSQGS[αMeF]TSDVSK[Aib]LDSK([PEG2-PEG2-γGlu-γGlu-Stearoyl])AAQD[αMeF]VQ[Aib]LSE-NH2; N-terminus assumed): in assay [1], the EC50 came to 5.4 pM. Moreover, in assay [2], the “% Relative Potency Ratio” value is 20.7.

`CCCCCCCCCCCCCCCCCC(=O)N[C@@H](CCC(=O)N[C@@H](CCC(=O)NCCOCCOCCC(=O)NCCOCCOCCC(=O)NCCCC[C@H](NC(=O)[C@H](CO)NC(=O)[C@H](CC(=O)O)NC(=O)[C@H](CC(C)C)NC(=O)C(C)(C)NC(=O)[C@H](CCCCN)NC(=O)[C@H](CO)NC(=O)[C@@H](NC(=O)[C@H](CC(=O)O)NC(=O)[C@H](CO)NC(=O)[C@@H](NC(=O)[C@](C)(Cc1ccccc1)NC(=O)[C@H](CO)NC(=O)CNC(=O)[C@H](CCC(N)=O)NC(=O)[C@H](CO)NC(=O)[C@@H](N)Cc1c[nH]cn1)[C@@H](C)O)C(C)C)C(=O)N[C@@H](C)C(=O)N[C@@H](C)C(=O)N[C@@H](CCC(N)=O)C(=O)N[C@@H](CC(=O)O)C(=O)N[C@@](C)(Cc1ccccc1)C(=O)N[C@H](C(=O)N[C@@H](CCC(N)=O)C(=O)NC(C)(C)C(=O)N[C@@H](CC(C)C)C(=O)N[C@@H](C)C(=O)N[C@@H](CC(N)=O)C(=O)N[C@H](C(N)=O)[C@@H](C)O)C(C)C)C(=O)O)C(=O)O` [Peptide 95] (H-HSQGS[αMeF]TSDVSK[Aib]LDSK([PEG2-PEG2-γGlu-γGlu-Stearoyl])AAQD[αMeF]VQ[Aib]LANT-NH2; N-terminus assumed): in assay [1], the EC50 was 12.5 pM. Besides, in assay [2], the “% Relative Potency Ratio” value was 40.6.
